“And” between values parts separate entries of the source, which are not always exact repeats. Equal values may be shown once.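 Exposure lasted 48 hours, with cells grown in 96-well plates and compounds tested at five concentrations. The concentration for 50% growth inhibition is given as GI50. TGI: concentration producing complete growth inhibition.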
Assays:
Experiment in all cases: growth of human tumour cells (NCI), 48 h
[1] = test system: NCI-H522 lung
[2] = test system: SF-539 CNS
[3] = test system: HCT-15 colon
[4] = test system: SN12C renal
[5] = test system: UACC-62 melanoma
[6] = test system: HOP-92 NSCLC
[7] = test system: HT29 colon
[8] = test system: IGROV1 ovarian
[9] = test system: A498 renal
[10] = test system: NCI-H460 lung

| Structure (SMILES) | TGI [1] [µM] | TGI [2] | TGI [3] [µM] | TGI [4] [µM] | TGI [5] [µM] | TGI [6] [µM] | TGI [7] [µM] | TGI [8] [µM] | TGI [9] [µM] | GI50 [1] | GI50 [2] | GI50 [3] | GI50 [4] | GI50 [5] | GI50 [10] | TGI [10] [µM] | GI50 [7] [µM] | GI50 [8] | GI50 [9] | GI50 [6] [µM] |
| --- | --- | --- | --- | --- | --- | --- | --- | --- | --- | --- | --- | --- | --- | --- | --- | --- | --- | --- | --- | --- |
| COc1cc2c(c(OC)c1OC)-c1ccc(SC)c(=O)cc1[C@@H](NC(=O)C(F)(F)F)CC2 | < 0.01 | < 0.01 µM | > 15.8 | 16.5 | > 100 | 0.105 | 0.182 | > 100 | 1.86 | – | – | – | – | – | – | – | – | – | – | – |
| CC[C@H](C)[C@H](NC(=O)[C@H]1CCCCN1C)C(=O)N(C)[C@H](C[C@@H](OC(C)=O)c1cccc(C(=O)N[C@@H](Cc2ccccc2)C[C@H](C)C(=O)O)n1)C(C)C | < 0.0025 | 0.00742 µM and < 0.0025 µM | > 25 | > 25 | > 25 | – | – | > 25 | – | 0.0005 µM and < 0.0025 µM | 0.00148 µM and < 0.0025 µM | 0.0064 µM and 0.0025 µM | 0.00417 µM and 0.0025 µM | 0.00038 µM and 0.0025 µM | 0.00278 µM and 0.0025 µM | > 25 | 0.00168 | 0.0038 µM and 0.0025 µM | 0.00184 µM and < 0.0025 µM | – |
| CCCCCCCCCCCCN=C(N)c1ccc(N2CCN(c3ccc(C(N)=NCCCCCCCCCCCC)cc3)CC2)cc1 | 31.2 | – | > 50 | 18.7 | 21.5 | 2.86 | 25.6 | – | – | 3.42 µM | – | 35 µM | 8.99 µM | 10.5 µM | 13.8 µM | > 50 | 5.68 | – | – | 0.614 |
| O=C1Nc2ccccc2/C1=C\c1nc(-c2ccccc2F)n2ccccc12 | 7.37 | 11.1 µM | > 100 | 17 | 25.2 | – | 12.1 | 12.5 | 11 | 2.18 µM | 3.1 µM | 13 µM | 4.32 µM | 6.32 µM | 2.17 µM | 5.14 | 3.5 | 2.04 µM | 2.81 µM | – |
| CCCCCCCCCCCCCCCC(=O)OCCOCCOCCOCCOCCOC(=O)CCCCCCCCCCCCCCC | > 100 | – | > 100 | > 100 | > 100 | > 100 | > 100 | > 100 | > 100 | – | – | – | – | – | – | > 100 | – | – | – | – |
| COc1ccc2c(c1)/C(=C\c1c(-c3cc(OC)ccc3OC)nc3sccn13)C(=O)N2 | – | – | 18.7 | – | 28.5 | 3.47 | 2.66 | 2.73 | – | – | – | 7.19 µM and 5.37 µM | – | 5.42 µM and 12.4 µM | 4.39 µM | > 100 | 1.37 | 0.697 µM | – | 1.76 |
| NC(Cc1c[nH]c2ccc([N+](=O)[O-])cc12)C(=O)O (centres undefined) | > 100 | – | > 100 | > 100 | > 100 | – | > 100 | > 100 | > 100 | – | – | – | – | – | – | – | – | – | – | – |
| COc1cc2ncnc(Nc3ccc(Oc4ccnc(C)c4)c(C)c3)c2cc1NC(=O)CC1CCSS1 (centres undefined) | 2.19 | > 10.7 µM | 2.31 | > 50 | 3.71 | 23.1 | – | > 50 | 22.8 | 0.861 µM | 1.29 µM | 1.04 µM | 1.5 µM | 1.26 µM | – | – | – | 1.54 µM | 7.94 µM | 3.75 |
| O=C(Nc1cc(Cl)ccc1O)c1cccc(Nc2ccnc(C(F)(F)F)c2)c1 | – | 15 µM | 42.1 | 25.5 | 11.9 | 10.9 | 31.8 | 33.9 | 13.4 | – | 2.07 µM | 2.61 µM | 3.36 µM | 0.901 µM | 1.95 µM | 13.2 | 11.1 | 7.47 µM | 3.28 µM | 2.27 |
| CC1=CP(=O)(c2ccccc2)C=C(C)C1=C(Cl)Cl (centres undefined) | 7.23 | 88.6 µM | – | 81.8 | 21.7 | – | 13.1 | 34.1 | – | – | – | – | – | – | – | 59.1 | – | – | – | – |
| COc1cc(/C=C(\NC(=O)c2ccccc2)c2nc3ncncc3[nH]2)cc(OC)c1OC | > 100 | > 100 µM | > 100 | > 100 | > 100 | > 100 | > 100 | > 100 | – | – | – | – | – | – | – | – | – | – | – | – |
| CCOC(=N)CC(=O)Nc1ccccc1 | > 100 | > 46.4 µM | > 46.4 | > 46.4 | > 100 | – | > 46.4 | > 46.4 | > 46.4 | – | – | – | – | – | – | > 46.4 | – | – | – | – |
| COc1ccccc1/C=C\C(=O)C1COCN1 (centres undefined) | 36.1 | 38.5 µM | 35.8 | 35.1 | 31.9 | – | 30.6 | 64.6 | – | – | – | – | – | – | – | > 100 | – | – | – | – |
| Cc1ccc(N=C2N=C(N3CC(C)OC(C)C3)c3ccccc32)cc1 (centres undefined) | – | 38.1 µM | > 100 | > 100 | > 100 | 26.5 | 65 | 88.8 | 90.1 | – | – | – | – | – | – | > 100 | – | – | – | – |
| CCc1cc2c(O)c(c1)Cc1cc(CC)cc(c1O)Cc1cc(CC)cc(c1O)Cc1cc(CC)cc(c1O)Cc1cc(CC)cc(c1O)Cc1cc(CC)cc(c1O)Cc1cc(CC)cc(c1O)C2 | > 100 | > 100 µM | > 100 | > 100 | > 100 | > 100 | > 100 | > 100 | – | – | – | – | – | – | – | > 100 | – | – | – | – |
| O=C(N=c1nc(NC(=O)c2ccccc2)ss1)c1ccccc1 | 42.4 | 37.9 µM | > 100 | 66.6 | – | – | 37.6 | > 100 | 87.6 | – | – | – | – | – | – | 39.7 | – | – | – | – |
| O=C(Nc1ccc(Cl)cc1C(=O)O)c1ccc([N+](=O)[O-])cc1 | – | 37.5 µM | 46.3 | > 100 | 45.6 | 22.6 | 40.7 | 45.5 | 27.2 | – | – | – | – | – | – | 45.7 | – | – | – | – |
| Oc1[nH]c2ccccc2c1/C=c1/ccc2c(c1)N=C(c1ccc(C(F)(F)F)cc1)N=2 | 13.5 | 21.1 µM | 20.3 | 20.6 | 15.8 | – | 11.3 | 13.3 | 11.2 | 1.97 µM | 7.45 µM | 4.09 µM | 6.91 µM | 2.62 µM | 2.13 µM | 6.12 | 1.61 | 3.01 µM | 1.54 µM | – |
